{
  "source": "paper PMC3658274",
  "about": "“Characterization of drug-induced transcriptional modules: towards drug repositioning and functional understanding” (Molecular Systems Biology, 2013)",
  "key": {"HL60": {"system": "HL60", "assay": "cells", "parameters": "Cell viability, Alamar Blue fluorescence", "conditions": "Homo sapiens, HL-60, 72 h", "procedure": "(§1) HL60 (CPQ-054) was cultured as suspension cells in RPMI-1640 containing 10% FCS and penicillin/streptomycin. MCF7 (CPQ-072) cells were cultured as adherent cells in DMEM containing 10% FCS and penicillin/streptomycin. Cells were cultured at 37 °C in an atmosphere of 5% (HL60) or 10% (MCF7) CO2. For the assays, cells (5000 cells/well) were seeded in 150 μl medium on a 96-well cell culture plate and incubated overnight at 37 °C. The next day, cells were treated with different concentrations of selected chemicals from CMap. After 72 h, the viability of treated cells was measured after incubation for 4 h with the indicator dye Alamar Blue and fluorescence measurement at 590 nm. The single concentration of mephentermine (50 μM) was tested in quadruplicates. The IC50 curves for the predicted compounds (sulconazole, vinburnine) and their corresponding negative controls (butoconazole, moxisylyte hydrochloride) were prepared in eight semilog dilutions starting at 1E-5M and tested in duplicates. The reference compound staurosporine was prepared in eight decalog dilutions starting at 1E-5M. Standard solvent controls were performed using 0.1% DMSO. Treatment of cells with 0.1% DMSO and 1E-5M staurosporine served as high control (100% viability) and low control (0% viability), respectively. Raw data were converted into percent viability relative to high controls (solvent 0.1% DMSO) and low controls (1E-05M staurosporine), which were set to 100 and 0%, respectively. IC50 values were calculated using R package ‘drc’ ([Ritz and Streibig, 2005]) by fitting dose response data to a two-parametric log-logistic function with 0% growth as bottom constraint and 100% growth as top constraint. For cell cycle analysis, HL60 cells (ATCC CCL-240) were grown for 6 h with an initial concentration of 0.4 Mio/ml in 3 ml of medium before sulconazole (25 μM) and vinburnine (25 μM) (nocodazole, 200ng/ml as reference) were added. For three time points (24, 48 and 72 h), (un)treated cells were collected, fixed in 80% methanol for 24 h and further rehydrated in PBS/1%FCS at room temperature for 30 min before RNAse A (100 μg/ml) and PI (50 μg/ml) treatment. FACS (FACSCalibur, BD Biosciences) was empl"}, "MCF7": {"system": "MCF7", "assay": "cells", "parameters": "Cell viability, Alamar Blue fluorescence", "conditions": "Homo sapiens, MCF7, 72 h", "procedure": "as §1"}, "[1]": {"target": "T1, estrogen receptor-α (ERα) (Homo sapiens, UniProt P03372)", "T1 construct": "gene ESR1", "T1 sequence (P03372 1-595)": "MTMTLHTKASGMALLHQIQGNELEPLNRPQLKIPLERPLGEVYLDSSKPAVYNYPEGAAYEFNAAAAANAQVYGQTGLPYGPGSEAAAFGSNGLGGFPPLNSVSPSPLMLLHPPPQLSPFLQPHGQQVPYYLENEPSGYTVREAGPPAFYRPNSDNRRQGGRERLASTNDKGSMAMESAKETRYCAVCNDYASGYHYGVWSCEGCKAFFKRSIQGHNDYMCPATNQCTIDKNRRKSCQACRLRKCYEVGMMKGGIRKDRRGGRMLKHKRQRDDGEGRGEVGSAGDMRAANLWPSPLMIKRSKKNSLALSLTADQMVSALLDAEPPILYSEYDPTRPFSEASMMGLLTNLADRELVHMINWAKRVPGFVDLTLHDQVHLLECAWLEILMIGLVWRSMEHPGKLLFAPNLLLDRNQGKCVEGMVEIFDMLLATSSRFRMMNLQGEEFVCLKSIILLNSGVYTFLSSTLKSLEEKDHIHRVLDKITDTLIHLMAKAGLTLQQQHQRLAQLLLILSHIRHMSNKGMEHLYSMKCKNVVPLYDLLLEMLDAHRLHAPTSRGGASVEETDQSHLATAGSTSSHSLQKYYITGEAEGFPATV", "assay": "cell-based", "parameters": "Cerep cellular ER alpha antagonist effect assay (ref. 3495)", "conditions": "read-out: Antag./Inhibitor", "procedure": "(§2) In vitro binding assays were performed by the company Cerep for α-2 adrenergic receptor (agonist, ref. 3443), estrogen receptor-α(ERα, agonist, ref. 0484) and PPARγ (agonist, ref. 0641). Similarly, Cerep carried out the cellular assays of 2C-1 adrenergic receptor (α1B, agonist effect, ref. 1901) and ERα (antagonistic effect, ref. 3495). […] The effect of chemicals were initially evaluated at 50 μM, and Ki values were further determined for chemicals with more than 40% activity in initial assessment. As explained above, R package ‘drc’ ([Ritz and Streibig, 2005]) was utilized to calculate IC50 values using a two-parametric log-logistic function with 0% as minimum and 100% as maximum. Ki values were generated from the IC50 values using Cheng–Prusoff equation."}, "[2]": {"target": "T2, ADRA2C (α-2 adrenergic receptor) (Homo sapiens, UniProt P18825)", "T2 sequence (P18825 1-462)": "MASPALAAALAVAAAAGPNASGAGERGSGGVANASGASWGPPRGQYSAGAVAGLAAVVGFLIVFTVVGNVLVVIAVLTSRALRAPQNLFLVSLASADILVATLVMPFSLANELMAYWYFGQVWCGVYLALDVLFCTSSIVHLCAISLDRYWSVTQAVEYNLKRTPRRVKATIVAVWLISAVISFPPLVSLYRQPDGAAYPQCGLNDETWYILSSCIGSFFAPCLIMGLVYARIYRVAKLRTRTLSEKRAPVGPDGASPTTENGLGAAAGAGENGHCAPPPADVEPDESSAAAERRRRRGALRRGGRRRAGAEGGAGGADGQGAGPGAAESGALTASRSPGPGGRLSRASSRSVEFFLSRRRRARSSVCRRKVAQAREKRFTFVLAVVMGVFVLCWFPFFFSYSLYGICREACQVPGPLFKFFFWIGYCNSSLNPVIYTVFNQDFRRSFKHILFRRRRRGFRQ", "assay": "biochemical", "parameters": "Cerep in vitro receptor binding assay (agonist ligand), per cent inhibition at 50 uM and Ki by Cheng-Prusoff", "conditions": "read-out: % inhibition", "procedure": "as §2"}, "ADRA1B": {"target": "T3, ADRA1B (Homo sapiens, UniProt P35368)", "T3 sequence (P35368 1-520)": "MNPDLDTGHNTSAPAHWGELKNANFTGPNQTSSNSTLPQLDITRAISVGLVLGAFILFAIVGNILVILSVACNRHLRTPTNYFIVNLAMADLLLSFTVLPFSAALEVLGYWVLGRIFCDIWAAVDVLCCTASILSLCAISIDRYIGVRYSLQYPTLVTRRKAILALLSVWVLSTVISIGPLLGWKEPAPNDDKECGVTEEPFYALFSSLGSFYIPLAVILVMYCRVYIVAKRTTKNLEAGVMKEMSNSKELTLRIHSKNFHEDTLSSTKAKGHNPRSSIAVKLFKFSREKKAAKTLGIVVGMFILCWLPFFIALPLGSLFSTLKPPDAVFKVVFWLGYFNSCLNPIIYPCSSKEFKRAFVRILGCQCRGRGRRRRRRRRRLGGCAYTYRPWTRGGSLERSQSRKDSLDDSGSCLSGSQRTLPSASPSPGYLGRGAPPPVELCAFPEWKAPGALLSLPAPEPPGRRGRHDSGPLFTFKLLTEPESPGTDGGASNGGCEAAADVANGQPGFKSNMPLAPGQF", "assay": "cell-based", "parameters": "Cerep cellular alpha1B adrenergic receptor agonist effect assay (ref. 1901)", "conditions": "read-out: Agonist", "procedure": "as §2"}, "[3]": {"target": "T4, PPARγ (peroxisome proliferator-activated receptor subtype-γ) (Homo sapiens, UniProt P37231)", "T4 construct": "gene PPARG", "T4 sequence (P37231 1-505)": "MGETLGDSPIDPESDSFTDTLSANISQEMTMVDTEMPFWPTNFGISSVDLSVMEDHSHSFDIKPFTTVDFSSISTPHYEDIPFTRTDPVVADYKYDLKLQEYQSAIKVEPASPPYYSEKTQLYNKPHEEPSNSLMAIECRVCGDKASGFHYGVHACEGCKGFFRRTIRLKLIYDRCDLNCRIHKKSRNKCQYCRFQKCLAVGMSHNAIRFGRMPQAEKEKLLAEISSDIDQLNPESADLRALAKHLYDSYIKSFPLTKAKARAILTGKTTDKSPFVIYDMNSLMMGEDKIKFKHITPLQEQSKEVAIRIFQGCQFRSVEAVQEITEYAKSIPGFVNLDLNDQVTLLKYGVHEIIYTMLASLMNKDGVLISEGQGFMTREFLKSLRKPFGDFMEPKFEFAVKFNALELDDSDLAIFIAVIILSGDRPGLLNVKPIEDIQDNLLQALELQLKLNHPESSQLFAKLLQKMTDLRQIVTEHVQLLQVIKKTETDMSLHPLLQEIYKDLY", "assay": "biochemical", "parameters": "Cerep in vitro receptor binding assay (agonist ligand), per cent inhibition at 50 uM and Ki by Cheng-Prusoff", "conditions": "read-out: % inhibition", "procedure": "as §2"}, "[4]": {"target": "T5, estrogen receptor-α (ERα) (Homo sapiens, UniProt P03372)", "T5 construct": "gene ESR1", "assay": "in vitro binding assay (Cerep, agonist, ref. […]), Ki from IC50 by Cheng-Prusoff; authors call it ambiguous"}, "[5]": {"target": "T1, estrogen receptor-α (ERα)", "assay": "biochemical", "parameters": "Cerep in vitro receptor binding assay (agonist ligand), per cent inhibition at 50 uM and Ki by Cheng-Prusoff", "conditions": "read-out: % inhibition"}, "[6]": {"target": "T4, PPARγ (peroxisome proliferator-activated receptor subtype-γ)", "assay": "in vitro binding assay (Cerep, agonist, ref. […]), Ki from IC50 by Cheng-Prusoff"}},
  "data": [
    {"molecule": "Clc1ccc(CCC(Cn2ccnc2)Sc2c(Cl)cccc2Cl)cc1", "note": "(stereo not shown) [Butoconazole]", "values": [
      {"measurement": "IC50", "setting": "HL60", "result": 3.9, "unit": "µM"},
      {"measurement": "IC50", "setting": "MCF7", "result": 23, "unit": "µM"}
    ]},
    {"molecule": "COc1cc(C(=O)OCCCN2CCCN(CCCOC(=O)c3cc(OC)c(OC)c(OC)c3)CC2)cc(OC)c1OC", "note": "[Dilazep]", "values": [
      {"measurement": "inhibition at 50 µM", "setting": "[1]", "result": 26.3, "unit": "%"}
    ]},
    {"molecule": "CC(=O)Oc1cc(C(C)C)c(OCCN(C)C)cc1C", "note": "[Moxisylyte]", "values": [
      {"measurement": "IC50", "setting": "HL60", "result": "> 50", "unit": "µM"},
      {"measurement": "IC50", "setting": "MCF7", "result": "> 50", "unit": "µM"}
    ]},
    {"molecule": "COc1cc([C@@H]2c3cc4c(cc3[C@H](O)[C@H]3COC(=O)[C@H]23)OCO4)cc(OC)c1OC", "note": "[Podophyllotoxin]", "values": [
      {"measurement": "inhibition at 50 µM", "setting": "[2]", "result": "< 20", "unit": "%"},
      {"measurement": "activity at 50 µM", "setting": "ADRA1B", "result": "< 20", "unit": "%"}
    ]},
    {"molecule": "COC(=O)C1=CO[C@@H](C)[C@H]2CN3CCc4c([nH]c5ccccc45)[C@@H]3C[C@H]12", "note": "[Raubasine]", "values": [
      {"measurement": "inhibition at 50 µM", "setting": "[3]", "result": "< 20", "unit": "%"}
    ]},
    {"molecule": "C=CC(N)CCC(=O)O", "note": "(stereo not shown) [Vigabatrin]", "values": [
      {"measurement": "inhibition at 50 µM", "setting": "[2]", "result": "< 20", "unit": "%"},
      {"measurement": "activity at 50 µM", "setting": "ADRA1B", "result": "< 20", "unit": "%"}
    ]},
    {"molecule": "CCCCC(CC)CN1CN(CC(CC)CCCC)CC(C)(N)C1", "note": "(stereo not shown) [hexetidine]", "values": [
      {"measurement": "inhibition at 50 µM", "setting": "[2]", "result": 59, "unit": "%"},
      {"measurement": "activity at 50 µM", "setting": "ADRA1B", "result": "< 20", "unit": "%"}
    ]},
    {"molecule": "CCOC(=O)C1=C(C)NC(C)=C(C(=O)OC)C1c1cccc([N+](=O)[O-])c1", "note": "(stereo not shown) [nitrendipine]", "values": [
      {"measurement": "Ki", "setting": "[4]", "result": "~46", "unit": "µM"},
      {"measurement": "inhibition at 50 µM", "setting": "[5]", "result": 49, "unit": "%"}
    ]},
    {"molecule": "CCCOc1ccccc1-c1nc2nn[nH]c2c(=O)[nH]1", "note": "[zaprinast]", "values": [
      {"measurement": "inhibition at 50 µM", "setting": "[3]", "result": 57, "unit": "%"},
      {"measurement": "Ki", "setting": "[6]", "result": 14, "unit": "µM"}
    ]}
  ]
}
